Data: patent US20060069132A1, “Azolecarboxamide herbicides” (priority 2004, published 2006)

What was measured:
morningglory = assay: Test C pre-/postemergence herbicide test; assay type: in vivo, Ipomoea coccinea; design: key to Plant response rating, Morningglory: 0 = no effect, 100 = complete control; conditions: for Plant response rating, Morningglory / Plant response rating (0 = no effect, 100 = complete control), Morningglory: preemergence
Method in brief: (§1)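 Visual injury scores run from 0 (no effect) to 100 (complete control), assessed relative to untreated controls 12 to 14 days after treatment in the greenhouse. Chemicals were formulated in a non-phytotoxic solvent mixture with surfactant and applied to soil after planting or to emerged plants at the 1- to 4-leaf stage.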

giant foxtail = assay: Test C pre-/postemergence herbicide test; assay type: in vivo, Setaria faberi; conditions: for Plant response rating, Foxtail, Giant / Plant response rating (0 = no effect, 100 = complete control), Foxtail, Giant: preemergence
Method in brief: as §1

goosegrass = assay: Test C pre-/postemergence herbicide test; assay type: in vivo, Eleusine indica; conditions: for Plant response rating, Goosegrass / Plant response rating (0 = no effect, 100 = complete control), Goosegrass: preemergence
Method in brief: as §1

kochia = assay: Test C pre-/postemergence herbicide test; assay type: in vivo, Kochia scoparia; conditions: for Plant response rating, Kochia / Plant response rating (0 = no effect, 100 = complete control), Kochia: preemergence
Method in brief: as §1

[1] = system: smallflower umbrella sedge; assay: Test C flooded paddy test; assay type: in vivo, Cyperus difformis; conditions: for Plant response rating, Sedge, Umbrella: 500 g ai/ha, visual rating after 12 to 14 days
soybean = assay: Test C pre-/postemergence herbicide test; assay type: in vivo, Glycine max; conditions: for Plant response rating, Soybean / Plant response rating (0 = no effect, 100 = complete control), Soybean: preemergence
Method in brief: as §1

[2] = system: common (oilseed) sunflower; assay: Test C pre-/postemergence herbicide test; assay type: in vivo, Helianthus annuus; conditions: for Plant response rating, Sunflower / Plant response rating (0 = no effect, 100 = complete control), Sunflower: preemergence
Method in brief: as §1

bermudagrass = assay: Test C pre-/postemergence herbicide test; assay type: in vivo, Cynodon dactylon; conditions: for Plant response rating, Bermudagrass / Plant response rating (0 = no effect, 100 = complete control), Bermudagrass: preemergence
Method in brief: as §1

[3] = 500 g ai/ha, scale 0 to 100 (0 no effect, 100 complete control), visual, 12 to 14 days
[4] = 125 g ai/ha, scale 0 to 100 (0 no effect, 100 complete control)
[5] = 250 g ai/ha, scale of 0 to 100, 0 is no effect, 100 is complete control
[6] = scale 0 to 100 (0 no effect, 100 complete control)
[7] = 62 g ai/ha, scale 0 to 100, 0 no effect, 100 complete control
[8] = 125 g ai/ha, scale 0 (no effect) to 100 (complete control), visual, 12 to 14 days
[9] = Preemergence, 500 g ai/ha, scale 0 to 100, 0 no effect, 100 complete control
[10] = 250 g ai/ha, scale 0 to 100 (0 no effect, 100 complete control), visual, 12 to 14 days

| Structure (SMILES) | Plant response rating, Morningglory (morningglory; 62 g ai/ha, scale 0 to 100) | Plant response rating (0 = no effect, 100 = complete control), Morningglory (morningglory; 125 g ai/ha) | Plant response rating, Morningglory (morningglory; [3]) | Plant response rating, Foxtail, Giant (giant foxtail; 62 g ai/ha, scale 0 to 100) | Plant response rating (0 = no effect, 100 = complete control), Foxtail, Giant (giant foxtail; 125 g ai/ha) | Plant response rating, Foxtail, Giant (giant foxtail; 250 g ai/ha, scale 0-100) | Plant response rating, Foxtail, Giant (giant foxtail; [3]) | Plant response rating, Goosegrass (goosegrass; 62 g ai/ha, scale 0 to 100) | Plant response rating (0 = no effect, 100 = complete control), Goosegrass (goosegrass; 125 g ai/ha) | Plant response rating, Goosegrass (goosegrass; 250 g ai/ha, scale 0-100) | Plant response rating, Goosegrass (goosegrass; [3]) | Plant response rating, Kochia (kochia; 62 g ai/ha, scale 0 to 100) | Plant response rating (0 = no effect, 100 = complete control), Kochia (kochia; 125 g ai/ha) | Plant response rating, Kochia (kochia; 250 g ai/ha, scale 0-100) | Sedge, Umbrella plant response rating [1, 4] | Sedge, Umbrella plant response rating [1, 5] | Plant response rating, Sedge, Umbrella [1, 6] | Plant response rating, Soybean (soybean; 62 g ai/ha, scale 0 to 100) | Plant response rating, Sunflower ([2]; 62 g ai/ha, scale 0 to 100) | Plant response rating, Bermudagrass (bermudagrass; [7]) | further results |
| --- | --- | --- | --- | --- | --- | --- | --- | --- | --- | --- | --- | --- | --- | --- | --- | --- | --- | --- | --- | --- | --- |
| Cc1nn(C(C)(C)C)nc1C(=O)Nc1cccc(C(=O)N(C)C)c1 [Compound 391] | 100 | 100 | 100 | 85 | 100 | 100 | 100 | 80 | 85 | 90 | 95 | 100 | 100 | 100 | 80 | 85 | 95 | 95 | 50 | 95 | Plant response rating, Morningglory (morningglory; 250 g ai/ha, scale 0-100): 100; Plant response rating, Kochia (kochia; [3]): 100; Sedge, Umbrella plant response rating ([1]; 62 g ai/ha, scale 0 to 100): 80; Plant response rating (0 = no effect, 100 = complete control), Soybean (soybean; 125 g ai/ha): 95; Plant response rating, Soybean (soybean; 250 g ai/ha, scale 0-100): 100; Plant response rating, Soybean (soybean; [3]): 100; Plant response rating (0 = no effect, 100 = complete control), Sunflower ([2]; 125 g ai/ha): 95; Plant response rating, Sunflower ([2]; 250 g ai/ha, scale 0-100): 100; Plant response rating, Sunflower [2, 3]: 100; Plant response rating (0 = no effect, 100 = complete control), Bermudagrass (bermudagrass; 125 g ai/ha): 95; Plant response rating, Bermudagrass (bermudagrass; 250 g ai/ha, scale 0-100): 95; Plant response rating, Bermudagrass (bermudagrass; [3]): 95 |
| CCNC(=O)c1cccc(NC(=O)c2nn(C(C)(C)CC)nc2CC)c1 [Compound 376] | 0 | 0 | 5 | 10 | 85 | 95 | 100 | 80 | 100 | 100 | 100 | 95 | 100 | 100 | 85 | 85 | 85 | 0 | 0 | 80 | Plant response rating, Morningglory (morningglory; 250 g ai/ha, scale 0-100): 5; Plant response rating, Kochia (kochia; [3]): 100; Sedge, Umbrella plant response rating ([1]; 62 g ai/ha, scale 0 to 100): 80; Plant response rating (0 = no effect, 100 = complete control), Soybean (soybean; 125 g ai/ha): 10; Plant response rating, Soybean (soybean; 250 g ai/ha, scale 0-100): 10; Plant response rating, Soybean (soybean; [3]): 10; Plant response rating (0 = no effect, 100 = complete control), Sunflower ([2]; 125 g ai/ha): 0; Plant response rating, Sunflower ([2]; 250 g ai/ha, scale 0-100): 0; Plant response rating, Sunflower [2, 3]: 0; Plant response rating (0 = no effect, 100 = complete control), Bermudagrass (bermudagrass; 125 g ai/ha): 90; Plant response rating, Bermudagrass (bermudagrass; 250 g ai/ha, scale 0-100): 100; Plant response rating, Bermudagrass (bermudagrass; [3]): 100 |
| CCNC(=O)c1ccc(F)c(N(C(C)=O)C(=O)c2cc(C(C)(C)C)nn2CC)c1 [Compound 399] | 15 | 25 | 75 | 95 | 100 | 100 | 100 | 95 | 100 | 100 | 100 |  | 80 | 100 | 70 | 85 | 85 | 75 | 0 | 100 | Plant response rating, Kochia (kochia; [3]): 100; Sedge, Umbrella plant response rating ([1]; 62 g ai/ha, scale 0 to 100): 65; Plant response rating (0 = no effect, 100 = complete control), Soybean (soybean; 125 g ai/ha): 85; Plant response rating, Soybean (soybean; [3]): 100; Plant response rating (0 = no effect, 100 = complete control), Sunflower ([2]; 125 g ai/ha): 0; Plant response rating, Sunflower [2, 3]: 35; Plant response rating (0 = no effect, 100 = complete control), Bermudagrass (bermudagrass; 125 g ai/ha): 100; Plant response rating, Bermudagrass (bermudagrass; 250 g ai/ha, scale 0-100): 100; Plant response rating, Bermudagrass (bermudagrass; [3]): 100 |
| CCNC(=O)c1ccnc(NC(=O)c2cc(C(C)(C)C)nn2CC)c1 [Compound 152] | 20 |  |  | 70 |  |  |  | 80 |  |  |  | 100 |  |  | 80 | 85 | 85 | 0 | 0 | 85 | Plant response rating, Morningglory (morningglory; [8]): 80; Morningglory plant response rating (morningglory; [9]): 100; Plant response rating, Foxtail, Giant (giant foxtail; [8]): 100; Plant response rating, Foxtail, Giant (giant foxtail; [10]): 100; Foxtail, Giant plant response rating (giant foxtail; [9]): 100; Plant response rating, Goosegrass (goosegrass; [8]): 100; Goosegrass plant response rating (goosegrass; [9]): 100; Plant response rating, Kochia (kochia; [8]): 100; Kochia plant response rating (kochia; [9]): 100; Sedge, Umbrella plant response rating ([1]; 62 g ai/ha, scale 0 to 100 (0 no effect, 100 complete control)): 80; Plant response rating, Soybean (soybean; [8]): 10; Soybean plant response rating (soybean; [9]): 100; Plant response rating, Sunflower [2, 8]: 10; Sunflower plant response rating [2, 9]: 70; Plant response rating, Bermudagrass (bermudagrass; [8]): 90; Plant response rating, Bermudagrass (bermudagrass; [10]): 100; Bermudagrass plant response rating (bermudagrass; [9]): 100 |
| CCC1=NN(C(C)(C)C)CC1C(=O)Nc1cc(C(=O)N(C)CC)ccc1F (racemic) [Compound 342] | 0 | 5 | 100 | 0 | 40 | 55 | 70 | 60 | 65 | 65 | 90 | 50 | 100 | 100 | 50 | 70 | 80 | 10 | 5 | 45 | Plant response rating, Morningglory (morningglory; 250 g ai/ha, scale 0-100): 70; Plant response rating, Kochia (kochia; [3]): 100; Sedge, Umbrella plant response rating ([1]; 62 g ai/ha, scale 0 to 100): 40; Plant response rating (0 = no effect, 100 = complete control), Soybean (soybean; 125 g ai/ha): 60; Plant response rating, Soybean (soybean; 250 g ai/ha, scale 0-100): 100; Plant response rating, Soybean (soybean; [3]): 100; Plant response rating (0 = no effect, 100 = complete control), Sunflower ([2]; 125 g ai/ha): 20; Plant response rating, Sunflower ([2]; 250 g ai/ha, scale 0-100): 75; Plant response rating, Sunflower [2, 3]: 100; Plant response rating (0 = no effect, 100 = complete control), Bermudagrass (bermudagrass; 125 g ai/ha): 60; Plant response rating, Bermudagrass (bermudagrass; 250 g ai/ha, scale 0-100): 90; Plant response rating, Bermudagrass (bermudagrass; [3]): 90 |
